The source of these data is patent US11471481B2, “Rapid-deposition thin-film forming compositions as effective wound care treatment” (priority 2016, dated 2022).

One series deals with human skin fibroblast. To be noted: cited from earlier work.
A short description of series [1]: Solubility of PVP-I in different organic solvents. In kind it is physicochemical. On the procedure:
PVP-I is a polymer complex soluble in water.
To make PVP-I liquid bandage solutions to form rapid-deposition film on skin surface, low boiling-point volatile solvents were selected to study solubility of PVP-I and the time required for the solvent to evaporate to dryness. […] When ethanol alone was the solvent, the drying time was 3 minutes 27 seconds. A mixed solvent has even shorter drying time. Particularly, when the mixed solvent contains acetone and isopentane (which have low boiling points), drying time had been shortened to less than 2 minutes, as the mixed solvents could form azeotropes, which was easier to evaporate. Isopentane had some irritation to skin, and thus its dosage could not be too high. From the study, dosage greater than 15% of isopentane could not shorten the drying time, but instead increase the skin irritation. n-Pentane is not used because of its pungent smell. Therefore, after a preliminary study, ethanol, ethyl acetate, acetone and isopentane alone or combinations were chosen as the solvent phase in this invention.

Like-named read-outs stand apart in the source and are kept apart here.

As to Povidone iodine [PVP-I], the Fibroblast growth entry in the series on human skin fibroblast (0.01% and 0.025% PVP-I solutions) is recorded as “progressively retarded”; with human skin fibroblast (0.1% and 1% PVP-I solutions) it was “totally inhibited”. Besides, in series [1] (ethanol), the “Solubility of PVP-I in ethanol” value is “readily soluble”. In series [1] (ethyl acetate, acetone, isopentane, n-pentane), the “Solubility of PVP-I in ethyl acetate, acetone, isopentane and n-pentane” value was “insoluble”.
